{
  "source": "patent US4610976A",
  "about": "“Porcine GRF” (The Salk Institute for Biological Studies, priority 1983, dated 1986)",
  "tested_on": "cells of rat pituitary glands",
  "experiment": "in vitro growth hormone release assay in rat pituitary cell monolayer cultures (ir GH by radioimmunoassay)",
  "format": "cell-based",
  "settings": "equimolar concentrations, side-by-side with synthetic hGRF(1-44)-NH2; incubation 3 to 4 hours; ir GH in culture medium",
  "protocol": "To determine the effectiveness of the peptide to promote the release of growth hormone, in vitro assays are carried out using synthetic hGRF(1-44)-NH2 in side-by-side comparison with equimolar concentrations of the extracted and purified pGRF(1-44) of Example II and of a GRF Reference Standard having a known effectiveness to promote the release of growth hormone from pituitary cells. The GRF Reference standard is described and defined in Brazeau, et al., Endocrinology, Vol. 110, A538(1982) and is an amount of a preparation of rat hypothalamic origin that produces a half-maximal response in terms of GH release in a pituitary cell monolayer bioassay. Cultures are used which include cells of rat pituitary glands removed some four to five days previously. Both cultures of a defined standard medium and cultures which are considered optimal for the secretion of growth hormone are used for the comparative testing, in the general manner described in Brazeau, et al. Regulatory Peptides, 1, 255, 1981. Incubation with the substance to be tested is carried out for 3 to 4 hours, and aliquots of the culture medium are removed and processed to measure their contents in inmunoreactive GH(ir GH) by a well-characterized radioimmunoassay.",
  "data": [
    {"substance": "Tyr-Ala-Asp-Ala-Ile-Phe-Thr-Asn-Ser-Tyr-Arg-Lys-Val-Leu-Gly-Gln-Leu-Ser-Ala-Arg-Lys-Leu-Leu-Gln-Asp-Ile-Met-Ser-Arg-Gln-Gln-Gly-Glu-Arg-Asn-Gln-Glu-Gln-Gly-Ala-Arg-Val-Arg-Leu (YADAIFTNSYRKVLGQLSARKLLQDIMSRQQGERNQEQGARVRL; printed: Tyr-Ala-Asp-Ala-Ile-Phe-Thr-Asn-Ser-Tyr-Arg-Lys-Val-Leu-Gly-Gln-Leu-Ser-Ala-Arg-Lys-Leu-Leu-Gln-Asp-Ile-Met-Ser-Arg-Gln-Gln-Gly-Glu-Arg-Asn-Gln-Glu-Gln-Gly-Ala-Arg-Val-Arg-Leu) [pGRF(1-44), 44-residue polypeptide isolated from purified extracts of porcine hypothalami]", "values": [
      {"measurement": "intrinsic biological activity to promote the release of growth hormone, compared with synthetic hGRF(1-44)-NH2", "result": "full intrinsic biological activity of the synthetic peptide"},
      {"measurement": "potency to promote the release of growth hormone, compared with synthetic hGRF(1-44)-NH2", "result": "close to the same potency"}
    ]}
  ]
}
